Measurements from patent US7648966B2, “Mannose-6-phosphonate compounds for the treatment of inflammatory diseases” (Pharmaxis Pty Limited, priority 2003, dated 2010).

Experiments:
[1] = tested on: 51Cr-labeled T lymphocyte migration into the spleen; test: Inhibition of lymphocyte migration into lymphoid tissue (spleen) in vivo; design: species or system Balb/c mice; conditions: 5 mg per mouse iv with labeled cells; spleens removed 1.5 hours after injection; vs negative controls
Experimental: Lymphocytes were obtained from spleens of 6-8 week old female specific pathogen-free Balb/c mice (19-21 g). Single cell suspensions prepared by conventional means (pushing through a stainless steel screen). Red blood cells were lysed by treating with a solution of bicarbonate buffered ammonium chloride-EDTA (pH 7.3) and the preparation strained through a Falcon 2350 cell strainer. All cell preparative steps were performed on ice. Cell were suspended in a conventional lymphocyte culture medium (DMEM plus glucose, folic acid, L-asparagine, sodium bicarbonate, L-glutamine, sodium pyruvate, HEPES, 2-mercaptoethanol, penicillin, streptomycin, neomycin, and 2% FCS).
B lymphocytes were depleted by suspending the cells in purified rat anti-mouse CD45/B220 antibody (RA3-6B2 clone; PharMingen, USA) at a concentration of 4×10^7 cells/ml and incubated on ice for 20 minutes. An equal volume of culture medium (as above) was added and the cells centrifuged (200×g) and resuspended at a concentration of 10^7 cells/ml in BioMag goat ant-rat IgG (H&L) (“GARIG”) conjugated to magnetic beads (Bio Mag; Perseptive Diagnostics, Polysciences, Inc., USA). Following a 20 minute incubation on ice, with agitation every 5 minutes, cells binding to the GARIG/anti-CD45/B220 antibody complex were removed using magnetic separation (Dynal MPC-6, Dynal, USA). This procedure was repeated 4 times, resulting in a cell population containing approximately 80-90% T lymphocytes (determined by FACS analysis).
The cells were then washed in Hanks balanced salt solution (HBSS), resuspended in 5 ml of HBSS, and radiolabeled with ^51Cr for 30 minutes at 37° C. (as described above). The labeled cells were washed in PBS, centrifuged (200×g), and a portion were resuspended at a concentration of 3×10^7 cells/ml in either PBS (negative control) or PBS containing phenyl mannoside 6-phosphate (25 mg/ml in PBS; positive control) or PBS containing the test compound (25 mg/ml), and stored on ice. Cell viability was confirmed throughout the procedures by trypan blue exclusion. Balb/c mice were injected intravenously (iv) into the lateral tail vein with 0.2 ml containing 6×10^6 labeled lymphocytes and 0.2 ml of either PBS (negative control), 5 mg positive control or 5 mg test compound. All groups of mice were weight matched (±0.5 g).
Spleens from recipient mice were removed 1.5 hours after injection, and the cell-associated radioactivity was determined using a gamma counter (as above). Results of inhibition of lymphocyte migration into the spleen were expressed as a percentage reduction in the CPM of the spleens from treated animals compared with negative controls.
The phosphono-mannoside compounds of the present invention and their relative inhibition of lymphocyte migration in vivo (compared to negative controls) are presented in Table 2.

[2] = tested on: MBP-specific T lymphocyte cell lines migrating across rat brain endothelial cell monolayer; test: Inhibition of T-lymphocyte migration across rat brain endothelial cell layer (Transwell, 51Cr-labeled cells); assay type: cell-based, Lewis rats; conditions: 6 hours
Experimental: Preparation of Brain Endothelial Cells (ECs)
Vascular ECs were isolated from rat brain capillaries of 6 to 8 week old Lewis rats according to the method of Risau, W et al., 1990, J. Cell Biol. 110:1757-1766 (which is incorporated herein by reference). Colonies of ECs were purified from astroglial cells and pericytes using anti-Thy1.1-antibody and complement-mediated lysis to remove unwanted Thy1.1+ cells.
The EC colonies were grown, using conventional methods, in Dulbecco's Modified Eagle's Medium (DMEM)-high glucose, supplemented, with 20% fetal calf serum (FCS), glutamine, pyruvate, nonessential amino acids, HEPES buffer and antibiotics (kanamycin, amphotericin), and heparin (all from GIBCO). Cultures were supplemented with 150 μg/ml “endothelial growth supplement” from Collaborative Biomedical Products. Upon reaching confluence, EC cultures were washed with 0.2% EDTA in phosphate buffered saline (PBS), trypsinized (Trypsin-EDTA, 0.1% final concentration), washed and re-treated with anti-Thy1.1 antibody for 40 min, washed and incubated with complement sufficient to lyse all Thy1.1+ cells (Behringwerke, AG, Marburg, Germany) at room temperature.
ECs were then plated on Matrigel®-coated 6.5 mm Transwells, […] (Corning Costar Corporation, Cambridge, Mass.). Presence of ECs and confluence of the monolayer were checked by measuring the electrical resistance (World Precision Instruments, New Haven, U.S.A., model EVOM-G) and by staining with FITC-labeled phalloidin (Sigma).
Myelin Basic Protein (MBP)-Specific T Cell Lines
To study the effect of agents of the present invention on T lymphocyte migration, MBP-specific T lymphocyte cell lines were generated according to the method of Ben-Nun et al., Europ. J. Immunol. 11:195-199 (1981); incorporated herein by reference) starting with lymphocytes from the LNs of Lewis rats that had been immunized with MBP in complete Freund's adjuvant (CFA). These cells were used for migration studies during the first 4 days of their propagation in IL-2-containing medium, following MBP restimulation in the presence of antigen-presenting cells (irradiated spleen or thymus cells from normal Lewis rats).
These stimulated T lymphocytes were radiolabeled with ^51Cr (Na^51Cr04, 37 MBq/ml, Amersham, UK) for 30 minutes at 37° C. with occasional agitation, they were then washed three times with DMEM and placed into the upper chamber of the Transwells at 5×10^5 cells in 100 μl of “migration medium.” Test and control substance were included in the upper wells at final concentrations of 0.1, 1 and 10 mM. Cell migration was assessed visually by light microscopy to gauge progress of the experiment. The experiment was terminated after 6 hours, whereupon the undersurface of the membrane filters were rinsed twice with 100 μl of ice-cold PBS-0.2% EDTA and combined with the medium of the lower chamber of the well. The combined material was counted for radioactivity in a gamma counter (Packard Auto-Gamma 5650 (Downer's Grove Ill., USA) gamma counter. Each “treatment” group was run in triplicate (test agent, control agent (glucose 6-phosphate) and no treatment).
Inhibition values are in comparison with the negative control.

[3] = Tested for pharmaceutical effectiveness (test not specified)
Experimental: In a similar manner to the foregoing procedure and using the appropriate reagents, the following compounds were prepared.

[4] = 10 mM in upper well, compared with negative control

| Compound | % Inhibition of lymphocyte migration into spleens [1] | % inhibition (±SEM) of T cell migration [2, 4] | pharmaceutical effectiveness as defined herein [3] | inhibition at 10000 µM ([2]; Rattus norvegicus, T-cell, 10 mM in upper well, compared with negative control, read-out: % inhibition (±SEM) of T cell migration) | migration value compared with no treatment ([2]; control agent) |
| --- | --- | --- | --- | --- | --- |
| 1-(2,4,6-trimethylphenyl)-6-phosphono-manoside | 85.5% | 80 ± 4% | – | – | – |
| 1-(2-methyl,4-chlorophenyl)-6-phosphono-mannoside | 45.0% | 65 ± 4% | – | – | – |
| 1-(2-methyl,4-fluorophenyl)-6-phosphonomannoside | 68.0% | 53 ± 2% | – | – | – |
| 1-(2-methyl,4-trifluoromethyl)-6-phosphonomannoside | 87.3% | 88 ± 3% | pharmaceutically effective | – | – |
| O=C[C@H](O)[C@@H](O)[C@H](O)[C@H](O)COP(=O)(O)O [glucose-6-phosphate, reference compound] | – | – | – | 0% | not statistically different from no treatment |
| O=P(O)(O)OC[C@H]1OC(Oc2ccccc2)[C@@H](O)[C@@H](O)[C@@H]1O (stereo partly drawn) [positive control compound, phenyl mannoside 6-phosphate, reference compound] | 70.5% | – | – | – | – |
